PMC9408991, “Antitumor Effects of a New Retinoate of the Fungal Cytotoxin Illudin M in Brain Tumor Models” (International Journal of Molecular Sciences, 2022)

Key:
[1] = Reactivity test with glutathione (enone absorption); type: physicochemical; settings: 200 µM compound, glutathione in PBS, 2 h, rt
Description: In a cell-free activity assay, the reaction of 1 and 2 with glutathione was measured by the decreasing absorption at 340 nm (enone group). Then, 2 µL of the substances (10 mM in DMSO) was mixed with 98 µL glutathione solution ([…] in PBS) in a 96-well plate. The absorption was measured at 340 nm every 30 s for 2 h at rt (Tecan F200). All experiments were performed at least four times.
Figure 1 Time-resolved measurement of the absorption at 340 nm (enone group) of 200 µM 1, 2 or solvent (DMSO) mixed with 6.5 mM glutathione in phosphate-buffered saline (PBS). Data are means ± SD of at least four independent measurements every 30 s.

[2] = tested on: retinoid-responsive elements (RARE); assay: RA reporter assay, F9 RARE-lacZ reporter cells; type: cell-based; settings: 0.3-5.0 µM, 20 h
From the text: More typical of retinoic acid is its contribution to cell differentiation during vertebrate embryonic development by interacting with nuclear receptors, which bind to specific retinoid-responsive elements (RARE) within the promoters of subordinate genes, activating their transcription. To verify that retinoate 2 also binds to RARE, we used a reporter assay with F9 teratocarcinoma cells featuring a RARE located within the cis-acting regulatory sequences of the human retinoic acid receptor alpha gene and immediately upstream of the E. coli lacZ genes, which thus acquire retinoid responsivity. LacZ expression in cells treated with various concentrations of 2 was then quantitated by densitometric analysis of β-galactosidase activity visualized by X-Gal staining.
The F9 embryonal carcinoma cell line, stably transfected with the 1.8 kb promoter sequence of RARb2 coupled to the lacZ gene, was used to measure active retinoids. The assay is appropriate for detection of all-trans RA but is able to detect other retinoid isomers as well. The F9 reporter cells were maintained in 10% FCS containing DMEM in the presence of 400 ug/mL G418. A day before the assay, F9 cell were seeded onto 24-well plates (100,000 cell/well). The cells were than treated with various concentrations of 2. […]

U87 glioma cells = assay: Apoptosis of U87 glioma cells (calcein/Annexin V-Cy3); type: cell-based, human; settings: between 1 and 10 µM, 48 h
Description: Astroglia cells grown on poly-L-lysine-coated glass cover slips were fixed with 4% paraformaldehyde in PBS for 20 min at room temperature and then permeabilized with Triton X-100 (0.1% v/v in PBS; 5 min). Nonspecific antibodies were blocked by incubation with 3% FBS in PBS (room temperature, 1 h). α-GFAP antibody (rabbit, DAKO) was used in a dilution of 1:2000 and was visualized by anti-rabbit IgG Alexa 594 (1:1000). DAPI (4′,6-diamidino-2-phenylindole) was used for nuclei staining. Fluorescence images were captured manually on a Zeiss Axiovert 200 M microscope fitted with 20- to 60-fold zoom and a Zeiss AxioCam MRm digital camera. Further applied antibodies were tubulin III (Sigma T5076), used at a dilution of 1:1000, and Annexin V. Cy3.18 (Sigma A4963).
Figure 6 U87 glioma cells undergo apoptosis upon 48 h treatment with 10 µM of 2. Cells in the early stages of apoptosis show calcein (green)/Annexin V-Cy3 (red) double labeling. Scale bars: 50 µm; 20 µm for inserts.

[3] = tested on: brain-derived cells (NE-4C, neurons, astrocytes, C6, U87, U251, MZ-54); assay: MTT assay, summary over brain-derived cells; type: cell-based; settings: 48 h, read-out: IC50 (48 h) values, range over brain-derived cells
Description: Non-GBM cells (5 × 10^4 cells/mL, 100 µL/well) were grown in 96-well plates for 24 h. Then, they were treated with various concentrations of the test compounds or vehicle (DMSO, or EtOH) for 72 h at 37 °C. After the addition of 12.5 µL of a 0.5% MTT solution in PBS, the cells were incubated for 3 h at 37 °C so that the water-soluble MTT could be converted to formazan crystals. Then, the plates were centrifuged (300× g, 5 min, 4 °C), the medium withdrawn, and the formazan dissolved in 25 µL of DMSO containing 10% sodium dodecylsulfate (SDS) and 0.6% acetic acid for at least 2 h at 37 °C. In the case of the HL60 cells, after 2 h, the precipitate of formazan crystals was redissolved in a 10% solution of SDS in DMSO containing 0.6% acetic acid.
Adherently grown GBM cells were seeded at 5 × 10^4 cells/mL and floating spheres at 8 × 10^4 cells/mL in 100 µL/well and incubated as above for 48 or 72 h at 37 °C. Afterward, 10 µL of a 5 mg/mL MTT solution in PBS was added to the cells for 3 h at 37 °C. Then, the spheres were centrifuged shortly to collect the cells on the bottom of the plate, and the medium was removed by careful pipetting for both adherently grown and floating sphere GBM cultures. […] The absorbance of formazan (λ = 570 nm), and background (λ = 630 nm) was measured with a microplate reader (Tecan Spark, Tecan Deutschland GmbH, Crailsheim, Germany).

CC1=C(/C=C/C(C)=C/C=C/C(C)=C/C(=O)O[C@@H]2C3=C(C)C4(CC4)[C@@](C)(O)C(=O)C3=CC2(C)C)C(C)(C)CCC1 [Compound 2, illudin M retinoate]
fading of the enone band in the presence of glutathione [1]: stabilization of conjugate 2 compared with 1
activation of F9 RARE-lacZ reporter cells (β-galactosidase, X-Gal staining) [2]: concentration-dependent activation
apoptosis of U87 glioma cells (U87 glioma cells): undergoing rapid apoptosis

CC1=C2C(=CC(C)(C)[C@@H]2O)C(=O)[C@](C)(O)C12CC2 [Compound 1, illudin M]
IC50 [3]: 50 to 400 nM
